US9855220B2, “Methods of treating pancreatic cancer” (priority 2013, dated 2018)

What was measured:
[1] = test system: pancreatic cancer; conditions: in vivo; cited from earlier work
[2] = test system: patients with locally advanced pancreatic cancer; conditions: cited from earlier work
[3] = test system: patients with metastatic adenocarcinoma of the pancreas; assay: MPACT phase 3 study: progression-free survival (independent radiological review, investigator review); format: in vivo, human; conditions: for Progression-free rate (%): independent radiological review
Protocol: (§1) The primary efficacy endpoint was overall survival (OS). […] 3.0 (NCI CTCAE).
(§2) 1 interim survival analysis was planned for futility.
(§3) Study endpoints were determined by analyzing the following criteria: (1) changes in serum CA 19-9 levels; (2) changes in plasma SPARC (secreted protein, acidic and rich in cysteine) levels; (3) time and duration of response (using RECIST v. 1.0); (4) disease control rate based on objective response or stable disease ≧16 weeks; (5) time to treatment failure; (6) progression-free survival and overall response rate by investigator; and (7) tumor response by PET scans using EORTC criteria and blinded radiology assessments. When assessing study endpoints, researchers examined correlations between objective tumor response as determined by CT and PET scans, molecular marker expression and efficacy, and objective tumor response as determined by PET, progression-free survival, CA 19-9 levels, SPARC levels and overall survival.

[4] = test system: patients with metastatic adenocarcinoma of the pancreas; assay: MPACT phase 3 study: overall survival; format: in vivo, human; conditions: for median overall survival: intent-to-treat population; for Median OS 95% CI (months): intent-to-treat
Description: (§4) Patients who had not experienced disease progression were followed with regularly scheduled spiral CT/MRI scans every 8 weeks in both arms. Patients were followed for survival until death or study closure.
The 1:1 randomization was stratified by: (1) Karnofsky performance status (PS) (70-80 versus 90-100); (2) Region (Australia, North America, Eastern/Western Europe); (3) Presence of liver metastasis (Yes vs. No).
(§5) The primary efficacy endpoint was overall survival (OS). Secondary efficacy endpoints were progression-free survival (PFS) (measured by blinded, independent radiology assessments done at 8 weeks), objective tumor response according to Response Evaluation Criteria in Solid Tumors (RECIST v. 1.0) based on Spiral computed tomography (CT) scans/magnetic resonance imaging (MRI). Other endpoints included were progression-free survival and objective response rate (ORR) by investigator review, disease control rate (DCR), time to failure (TTF), and safety/tolerability by National Cancer Institute Common Terminology Criteria for Adverse Events v. 3.0 (NCI CTCAE).
(§6) The sample size was increased prior to the interim analysis to increase the power from 80% to 90% (842 patients, 608 events) to detect a hazard ratio (HR) of 0.769 (2-sided α:0.049). 1 interim survival analysis was planned for futility. The intent-to-treat (ITT) population was evaluated for efficacy, the treated population for safety. Treatment differences in overall survival and progression-free survival were tested using stratified log-rank; objective response rates were tested using the chi-squared test.

[5] = test system: patients with metastatic adenocarcinoma of the pancreas; format: in vivo
Description: as §4

[6] = test system: patients with metastatic adenocarcinoma of the pancreas; assay: MPACT phase 3 study: time to treatment failure; format: in vivo, human
Protocol: as §1, §3

[7] = test system: patients with metastatic adenocarcinoma of the pancreas
Description: as §4, §5, §6

[8] = test system: patients with metastatic adenocarcinoma of the pancreas; assay: MPACT phase 3 study: objective tumor response and disease control rate (RECIST v. 1.0); format: in vivo, human
Protocol: as §1, §2, §3

[9] = number of patients (% of arm), N = 431 vs N = 430
[10] = independent radiological review
[11] = treated population, N = 421 vs N = 402
[12] = best response by blinded assessment
[13] = best response by blinded assessment / independent review

Nc1ccn([C@@H]2O[C@H](CO)[C@@H](O)C2(F)F)c(=O)n1 [Gemcitabine, gemcitabine]
median overall survival [1]: 6.0 months
median progression free survival [1]: 3.5 months
median overall survival [2]: 5.7 months
median time to disease progression [2]: 2.1 months
N/Events, PFS by independent radiological review ([3]; ITT): 430/265
Median Progression-Free Survival by independent radiological review ([3]; ITT population): 3.7 months
Progression-free rate (%) ([3]; at 6 month): 25%
Progression-free rate (%) ([3]; at 9 month): 14%
Progression-free rate (%) ([3]; at 12 month): 9%
Progression-free rate (%) ([3]; at 15 month): 9%
Median Progression-Free Survival by investigator review ([3]; in vivo): 3.5 months
N/Events, PFS by investigator review ([3]; in vivo): 430/348
Patients Died, % ([4]; ITT): (83%)
Median OS, sensitivity analysis ([4]; censor at time of 2nd line therapy): 6.8 Months
median overall survival [4]: 6.7 (6.01-7.23) months
median overall survival ([4]; listed as gemcitabine): 6.7 months
Median OS 95% CI (months) ([4]; subgroup Geographic Region: Eastern Europe): 5.9 (4.67, 7.46) months
Median OS 95% CI (months) ([4]; subgroup Geographic Region: North America): 6.8 (6.01, 7.52) months
Median OS 95% CI (months) ([4]; subgroup Geographic Region: Western Europe): 6.9 (5.09, —)^ months
Median OS 95% CI (months) ([4]; subgroup Pancreatic Cancer Primary Location: Head): 6.5 (5.55, 7.29) months
Median OS 95% CI (months) ([4]; subgroup Pancreatic Cancer Primary Location: Other): 6.9 (5.98, 7.52) months
% survival ([4]; time point 6 month): 55%
% survival ([4]; time point 9 month): 36%
% survival ([4]; time point 12 month (1-year survival rate)): 22%
% survival ([4]; time point 18 month): 9%
% survival ([4]; time point 24 month (2-year survival rate)): 4%
Patients with ≧1 Dose Reduction, %: gemcitabine ([5]; gemcitabine component): 33%
Reason for Therapy Discontinuation: Adverse Events [5, 9]: 73 (17%)
Reason for Therapy Discontinuation: Adverse Events Related to Study Drug [5, 9]: 29 (7%)
Reason for Therapy Discontinuation: Progressive Disease [5, 9]: 245 (57%)
Median TTF [6, 10]: 3.6 months
Patients with Treatment Failure, % [6, 10]: 94%
Patients Censored, % ([6]; time to treatment failure analysis): 6%
Febrile Neutropenia (any grade), % ([7]; human, in vivo): 1%
Grade ≧3 Anemia, % ([7]; human, in vivo): 12%
Grade ≧3 Diarrhea, % ([7]; human, in vivo): 2%
Grade ≧3 Fatigue, % ([7]; human, in vivo): 7%
Grade ≧3 Leukopenia, % ([7]; human, in vivo): 16%
Grade ≧3 Neuropathy, Time to Improvement by 1 grade, median ([7]; human, in vivo): 29 days
Grade ≧3 Neuropathy, Time to Onset, median ([7]; human, in vivo): 113 days
Grade ≧3 Neutropenia, % ([7]; human, in vivo): 27%
Grade ≧3 Peripheral neuropathy, % ([7]; human, in vivo): <1%
Grade ≧3 Thrombocytopenia, % ([7]; human, in vivo): 9%
Myelosuppression: ANC, NCI CTCAE Grade 3 ([7]; human, in vivo): 82 (21) n (%)
Myelosuppression: ANC, NCI CTCAE Grade 4 ([7]; human, in vivo): 21 (5) n (%)
Myelosuppression: Hemoglobin, NCI CTCAE Grade 3 ([7]; human, in vivo): 42 (11) n (%)
Myelosuppression: Hemoglobin, NCI CTCAE Grade 4 ([7]; human, in vivo): 6 (2) n (%)
Myelosuppression: Platelet Count, NCI CTCAE Grade 3 ([7]; human, in vivo): 28 (7) n (%)
Myelosuppression: Platelet Count, NCI CTCAE Grade 4 ([7]; human, in vivo): 8 (2) n (%)
Subjects with at least one AE with Action of Study Drug Permanently Discontinued ([7]; human, in vivo): 95 (24%) n (%)
Treatment Emergent AEs Resulting in Treatment Discontinuation: Blood & Lymphatic ([7]; human, in vivo): 16 (4%) n (%)
Treatment Emergent AEs Resulting in Treatment Discontinuation: Gastrointestinal disorders ([7]; human, in vivo): 22 (5%) n (%)
Treatment Emergent AEs Resulting in Treatment Discontinuation: General Disorders/Administration Site Condition ([7]; human, in vivo): 18 (4%) n (%)
Treatment Emergent AEs Resulting in Treatment Discontinuation: Infections and infestations ([7]; human, in vivo): 11 (3%) n (%)
Treatment Emergent AEs Resulting in Treatment Discontinuation: Nervous System ([7]; human, in vivo): 7 (2%) n (%)
Treatment Emergent AEs Resulting in Treatment Discontinuation: Respiratory, Thoracic and mediastinal disorders ([7]; human, in vivo): 15 (4%) n (%)
Treatment-Emergent Grade 3 or Higher AE: Abdominal pain ([7]; human, in vivo): 32 (8%)
Treatment-Emergent Grade 3 or Higher AE: Anemia ([7]; human, in vivo): 32 (8%)
Treatment-Emergent Grade 3 or Higher AE: Asthenia ([7]; human, in vivo): 17 (4%)
Treatment-Emergent Grade 3 or Higher AE: Dehydration ([7]; human, in vivo): 10 (2%)
Treatment-Emergent Grade 3 or Higher AE: Diarrhea ([7]; human, in vivo): 6 (1%)
Treatment-Emergent Grade 3 or Higher AE: Fatigue ([7]; human, in vivo): 37 (9%)
Treatment-Emergent Grade 3 or Higher AE: Leukopenia ([7]; human, in vivo): 15 (4%)
Treatment-Emergent Grade 3 or Higher AE: Nausea ([7]; human, in vivo): 14 (3%)
Treatment-Emergent Grade 3 or Higher AE: Neutropenia ([7]; human, in vivo): 85 (21%)
Treatment-Emergent Grade 3 or Higher AE: Peripheral neuropathy ([7]; human, in vivo): 3 (1%)
Treatment-Emergent Grade 3 or Higher AE: Pulmonary Embolism ([7]; human, in vivo): 26 (6%)
Treatment-Emergent Grade 3 or Higher AE: Thrombocytopenia ([7]; human, in vivo): 33 (8%)
Treatment-Emergent Grade 3 or Higher AE: Vomiting ([7]; human, in vivo): 15 (4%)
Pt with at least 1 AE leading to death, % ([7]; treated population): 4%
Subject with at Least 1 Treatment Related AE with Outcome of Death [7, 11]: 18 (4%) n (%)
Treatment Emergent AEs with Outcome of Death: Cardiac Disorders [7, 11]: 3 (1%) n (%)
Treatment Emergent AEs with Outcome of Death: Gastrointestinal disorders [7, 11]: 3 (1%) n (%)
Treatment Emergent AEs with Outcome of Death: General disorders and administration site conditions [7, 11]: 3 (1%) n (%)
Treatment Emergent AEs with Outcome of Death: Hepatobiliary disorders [7, 11]: 1 (<1%) n (%)
Treatment Emergent AEs with Outcome of Death: Infections and infestations [7, 11]: 3 (1%) n (%)
Treatment Emergent AEs with Outcome of Death: Neoplasm Progression [7, 11]: 2 (<1%) n (%)
Treatment Emergent AEs with Outcome of Death: Nervous system disorders [7, 11]: 2 (<1%) n (%)
Treatment Emergent AEs with Outcome of Death: Renal and urinary disorders [7, 11]: 1 (<1%) n (%)
Treatment Emergent AEs with Outcome of Death: Respiratory, thoracic and mediastinal disorders [7, 11]: 3 (1%) n (%)
Not evaluable, % [8, 12]: 39%
Progressive Disease, % [8, 12]: 26%
Stable Disease, % [8, 12]: 28%
Complete Response, % [8, 13]: 0%
Partial Response, % [8, 13]: 7%
ORR, blinded (independent radiological) assessment ([8]; confirmed complete or partial response, ITT): 7%
ORR, investigator assessment ([8]; in vivo): 8%
Stable Disease ≧16 weeks, % ([8]; independent review): 26%
DCR (disease control rate) by independent review ([8]; objective response or stable disease ≧16 weeks): 33%

O=c1[nH]cc(F)c(=O)[nH]1 [5-FU, 5-fluororuracil]
median overall survival [2]: 4.2 months
median time to disease progression [2]: 0.9 months
